For data set [1], the target named is T1, hMC4-R (Homo sapiens, UniProt P32245).
T1 construct: expressed in transfected cells; host or cells: HEK-293 (membrane homogenates)
As to the kind of experiment: Competitive binding assay using Eu-NDP-α-MSH, MC4-R. As to conditions: for selectivity for MC4-R (binding against MC1-R, MC3-R and MC4-R): in words. The method, then: Competitive inhibition binding assays were performed using membrane homogenates prepared from HEK-293 cells that express recombinant hMC1-R, hMC3-R, hMC4-R, or hMC5-R. In the examples that follow, all MC1-R, MC3-R, MC4-R and MC5-R values are for human recombinant receptors. Assays were performed in 96 well GF/B Millipore multiscreen filtration plates (MAFB NOB10) pre-coated with 0.5% bovine serum albumin (Fraction V). Membrane homogenates were incubated with 0.1 nM [1^125]-NDP-α-MSH (Perkin Elmer) and increasing concentrations of test peptides of the present invention in buffer containing 25 mM HEPES buffer (pH 7.5) with 100 mM NaCl, 2 mM CaCl2, 2 mM MgCl2, 0.3 mM 1,10-phenanthroline, and 0.1% bovine serum albumin. After incubation for 90 minutes at 37° C., the assay mixture was filtered and the membranes washed with 1 mL of cold 1×PBS wash buffer per well. 35 μL of scintillation cocktail was added to each well and the plates counted on a Microbeta counter for 1 minute per well. Non-specific binding was measured by inhibition of binding of [I^125]-NDP-α-MSH in the presence of 1 μM NDP-α-MSH. Maximal specific binding (100%) was defined as the difference in radioactivity (cpm) bound to cell membranes in the absence and presence of 1 μM NDP-α-MSH. Radioactivity (cpm) obtained in the presence of test compounds was normalized with respect to 100% specific binding to determine the percent inhibition of [I^125]-NDP-α-MSH binding. Each assay was conducted in duplicate and actual mean values are described, with results less than 0% reported as 0%. Ki values for test peptides of the present invention were determined using Graph-Pad Prism® curve-fitting software.
Alternatively, a competitive inhibition binding assay was performed employing Eu-NDP-α-MSH (PerkinElmer Life Sciences catalog No. AD0225) with determination by time-resolved fluorometry (TRF) of the lanthanide chelate. In comparison studies with [I^125]-NDP-α-MSH, the same values, within experimental error ranges, were obtained for percent inhibition and Ki. Typically competition experiments to determine Ki values were conducted by incubating membrane homogenates prepared from HEK-293 cells that express recombinant hMC4-R with 9 different concentrations of test compounds of interest and 1 nM of Eu-NDP-α-MSH in a solution containing 25 mM HEPES buffer with 100 mM NaCl, 2 mM CaCl2, 2 mM MgCl2, 0.1% BSA, and 0.3 mM 1,10-phenanthroline. After incubation for 90 minutes at 37° C., the reaction was stopped by filtration over AcroWell 96-well filter plates (Pall Life Sciences). The filter plates were washed 4 times with 200 μL of ice-cold phosphate-buffered saline. DELFIA Enhancement solution (PerkinElmer Life Sciences) was added to each well. The plates were incubated on a shaker for 15 minutes and read at 340 nm excitation and 615 nm emission wavelengths. Each assay was conducted in duplicate and mean values were utilized. Ki values were determined by curve-fitting with Graph-Pad Prism® software using a one-site fixed-slope competition binding model.

In data set [2] the target is T1, hMC4-R. As to the kind of experiment: Assay for agonist activity (cAMP accumulation in HEK-293 cells expressing hMC4-R). The class given is cell-based. The method, then: Accumulation of intracellular cAMP was examined as a measure of the ability of the peptides of the present invention to elicit a functional response in HEK-293 cells that express MC4-R. Confluent HEK-293 cells that express recombinant hMC4-R were detached from culture plates by incubation in enzyme-free cell dissociation buffer. Dispersed cells were suspended in Earle's Balanced Salt Solution containing 10 mM HEPES (pH 7.5), 1 mM MgCl2, 1 mM glutamine, 0.5% albumin and 0.3 mM 3-isobutyl-1-methyl-xanthine (IBMX), a phosphodiesterase inhibitor. The cells were plated in 96-well plates at a density of 0.5×10^5 cells per well and pre-incubated for 10 minutes. Cells were exposed for 15 minutes at 37° C. to peptides of the present invention dissolved in DMSO (final DMSO concentration of 1%) at a concentration range of 0.05-5000 nM in a total assay volume of 200 μL. NDP-α-MSH was used as the reference agonist. cAMP levels were determined by an HTRF® cAMP cell-based assay system from Cisbio Bioassays utilizing cryptate-labeled anti-cAMP and d2-labeled cAMP, with plates read on a Perkin-Elmer Victor plate reader at […]. Data analysis was performed by nonlinear regression analysis with Graph-Pad Prism® software. The maximum efficacies of the test peptides of the present invention were compared to that achieved by the reference melanocortin agonist NDP-α-MSH.
(In general: Cyclic AMP is a second messenger, typically raised through Gs and lowered through Gi signalling.)

The nature of data set [3]: Induction of penile erection in male rats. The class given is in vivo, rat. To be noted: for increase in observed spontaneous erections: in words. The method, then:
The ability of peptides of the present invention to induce penile erection (PE) in male rats were evaluated with selected peptides. Male Sprague-Dawley rats weighing 250-300 g were kept on a 12 hour on/off light cycle with food and water ad libitum. All behavioral studies were performed between 9 a.m. and 4 p.m. Groups of 6-8 rats were administered peptides at a variety of doses via an IV route. Immediately after treatment, rats were placed into individual polystyrene cages (27 cm long, 16 cm wide, and 25 cm high) for behavioral observation, typically by remote video monitoring. Rats are observed for one hour, and the number of yawns, grooming bouts and PEs are recorded in 10-minute bins.

A short description of data set [4]: Food intake and body weight change in rats. The data set is classed as in vivo, rat. To be noted: for food intake / rate of change in body weight: rat feeding studies, overall finding in words; for decrease in food consumption compared to control: rats. The method, then:
Change in food intake and body weight was evaluated for selected peptides administered by intravenous (IV) or subcutaneous injection routes. Male Sprague-Dawley rats were obtained from Hilltop Lab Animals, Inc. (Scottsdale, Pa.) or other vendors. Animals were individually housed in conventional polystyrene hanging cages and maintained on a controlled 12 hour on/off light cycle. Water and pelleted food was provided ad libitum. The rats were dosed IV with vehicle or selected peptides (0.3 to 1.0 mg/kg), or dosed subcutaneously with vehicle or selected peptides (doses up to 30 mg/kg). The changes in body weight and food intake for the 24 hour period after dosing was determined. The changes in body weight and food intake for the 48 hour and 72 hour periods after dosing can also be measured to determine reversal of changes in body weight and food intake effects back to baseline levels.

In data set [5] the target is human melanocortin-4 receptor (recombinant hMC4-R) (human) (UniProt P32245). Nature of the data set: cell-based or functional assay.
Data set [6] has as its target T2, human melanocortin-3 receptor (recombinant hMC3-R) (human, UniProt P41968 1-323).
T2 construct: whole, on cells; Membrane homogenates of HEK-293 cells expressing the recombinant receptor
As to the kind of experiment: competitive binding vs labelled NDP-α-MSH, hMC3-R membranes.

The target of data set [7] is human melanocortin-4 receptor (recombinant hMC4-R) (human, UniProt P32245 1-332). As to the kind of experiment: cell-based or functional assay.
The mark [8] stands for this setting: competitive studies using Eu-NDP-α-MSH / NDP-α-MSH, average of several studies, read-out: Ki value at MC4-R.
The mark [9] stands for this setting: competitive binding using Eu-NDP-α-MSH, human recombinant receptor, read-out: MC4-R Ki.

Values joined by “and” are separate entries in the source; they are usually repeats but may differ in a detail not shown here. Equal entries are not always repeated. Where two headings read alike, the source gives them in different places. *1 amine or outer side, *2 acyl side, *3 side chain or, on linkers, in order; H or OH if unused. Where a SMILES comes first, the peptide text is derived from it. Bridges are numbered along the chain shown (N, C = ends). [ ]: non-standard residue; d: D form. Ser(Bzl) = O-benzyl-L-serine, O=C([C@H](COCc1ccccc1)N[*:1])[*:2]; Orn = NCCC[C@H](N)C(=O)O

T1 sequence (P32245 whole entry): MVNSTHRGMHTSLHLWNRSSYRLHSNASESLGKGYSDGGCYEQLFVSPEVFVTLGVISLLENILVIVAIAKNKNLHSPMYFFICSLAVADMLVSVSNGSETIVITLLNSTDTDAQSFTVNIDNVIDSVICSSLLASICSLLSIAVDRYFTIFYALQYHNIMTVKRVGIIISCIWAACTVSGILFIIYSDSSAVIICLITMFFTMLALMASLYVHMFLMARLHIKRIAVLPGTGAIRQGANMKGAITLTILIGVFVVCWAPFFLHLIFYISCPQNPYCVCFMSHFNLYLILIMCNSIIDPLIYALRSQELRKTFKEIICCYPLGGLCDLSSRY
human melanocortin-4 receptor (recombinant hMC4-R) (human), sequence (P32245 whole entry): as above
T2 sequence (P41968 whole entry): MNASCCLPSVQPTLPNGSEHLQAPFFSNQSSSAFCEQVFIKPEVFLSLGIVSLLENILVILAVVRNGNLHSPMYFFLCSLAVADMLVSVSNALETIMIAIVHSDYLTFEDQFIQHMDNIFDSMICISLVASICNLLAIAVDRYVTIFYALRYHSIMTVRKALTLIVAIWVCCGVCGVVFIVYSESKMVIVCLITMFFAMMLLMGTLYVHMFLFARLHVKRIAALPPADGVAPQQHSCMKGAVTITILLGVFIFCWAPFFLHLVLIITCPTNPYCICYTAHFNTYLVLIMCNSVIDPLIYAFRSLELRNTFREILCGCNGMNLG
human melanocortin-4 receptor (recombinant hMC4-R), sequence (P32245 whole entry): as the sequence (P32245 whole entry) above

The Ki is the dissociation constant of the complex between target and ligand, obtained from inhibition or displacement. As a reminder, the EC50 is the concentration at which the effect is half-maximal. A higher EC50 goes with a less potent agent. Turning to `CC(=O)N[C@@H](CCCNC(=N)N)C(=O)N[C@H]1CC(=O)NCCCC[C@@H](C(=O)O)NC(=O)[C@H](Cc2c[nH]c3ccccc23)NC(=O)[C@H](CCCNC(=N)N)NC(=O)[C@@H](Cc2ccccc2)NC(=O)[C@H](COCc2ccccc2)NC1=O` [Compound 1, Ac-Arg-cyclo(Asp-Ser(Bzl)-D-Phe-Arg-Trp-Lys)-OH], in data set [1] (setting [8]), the Ki came to 12 nM. Moreover, the “selectivity for MC4-R (binding against MC1-R, MC3-R and MC4-R)” value in data set [1] is on record as “highly selective for MC4-R”. For the same molecule, the Emax in data set [2] (HEK293, NDP-α-MSH is 100%, read-out: intrinsic activity at MC4-R) is 38%. In addition, the “intrinsic activity at MC4-R” value in data set [2] (NDP-α-MSH is 100%) was found to be 47%. This molecule also came in with an EC50 in data set [2] (functional studies at MC4-R, average of several studies) of 2 nM. Further, the “functional classification at MC4-R” value in data set [2] (in words) is “partial agonist”. Moreover, the “average spontaneous erections per rat in one hour” value in data set [3] (IV, 1 mg/kg) is listed as 1.5±0.378 spontaneous erections per rat in one hour. Moreover, in data set [3] (IV), the “increase in observed spontaneous erections” value was “not found to result in a statistically significant increase”. The food intake result in data set [4] is reported as “reduce food intake”. Also, in data set [4], the “rate of change in body weight” value was “decrease the rate of change in body weight”. The “decrease in food consumption compared to control” value in data set [4] (0.3 mg/kg, 0-4 hour period) is reported as “statistically significant”; in data set [4] (1 mg/kg, 0-2 hour period), “statistically significant”; in data set [4] (1 mg/kg, 0-4 hour period), “statistically significant”; in data set [4] (1 mg/kg, 0-20 hour period) it was “statistically significant”.

As to `CC(=O)N[C@@H](CCCNC(=N)N)C(=O)N[C@H]1CCCNC(=O)CC[C@@H](C(N)=O)NC(=O)[C@H](Cc2c[nH]c3ccccc23)NC(=O)[C@H](CCCNC(=N)N)NC(=O)[C@@H](Cc2ccccc2)NC(=O)[C@@H]2CCCN2C1=O` [Compound 5, Ac-Arg-cyclo(Orn-Pro-D-Phe-Arg-Trp-Glu)-NH2] (Ac-R[Orn]P[dF]RWE-NH2; lactam 2-7), the inhibition constant Ki in data set [1] (setting [9]) was found to be 13 nM.

For the molecule `CC(=O)N[C@@H](CCCNC(=N)N)C(=O)N[C@H]1CC(=O)NCCCC[C@@H](C(N)=O)NC(=O)[C@H](Cc2c[nH]c3ccccc23)NC(=O)[C@H](CCCNC(=N)N)NC(=O)[C@@H](Cc2ccccc2)NC(=O)[C@@H]2CCCN2C1=O` [Compound 3, Ac-Arg-cyclo(Asp-Pro-D-Phe-Arg-Trp-Lys)-NH2], the Ki in data set [1] (setting [8]) stood at 11 nM. For the same molecule, the “selectivity for MC4-R (binding against MC1-R, MC3-R and MC4-R)” value in data set [1] is on record as “highly selective for MC4-R”. The “average spontaneous erections per rat in one hour” value in data set [3] (IV, 0.3 mg/kg) is recorded as 1.143±0.553 spontaneous erections per rat in one hour; in data set [3] (IV, 1 mg/kg) it was 1.286±0.421 spontaneous erections per rat in one hour. Further, the “increase in observed spontaneous erections” value in data set [3] (IV) is “not found to result in a statistically significant increase”. For the same molecule, the food intake entry in data set [4] was “reduce food intake”. Besides, the “rate of change in body weight” value in data set [4] was “decrease the rate of change in body weight”. Also, the “decrease in food consumption compared to control” value is given as “statistically significant” in data set [4] (0.3 mg/kg, 0-2 hour period); “statistically significant” in data set [4] (0.3 mg/kg, 0-4 hour period); “statistically significant” in data set [4] (0.3 mg/kg, 0-20 hour period); “statistically significant” in data set [4] (1 mg/kg, 0-2 hour period); “statistically significant” in data set [4] (1 mg/kg, 0-4 hour period); “statistically significant” in data set [4] (1 mg/kg, 0-20 hour period).

Turning to `CC(=O)N[C@@H](CCCNC(=N)N)C(=O)N[C@H]1CCC(=O)NCCC[C@@H](C(=O)O)NC(=O)[C@H](Cc2c[nH]c3ccccc23)NC(=O)[C@H](CCCNC(=N)N)NC(=O)[C@@H](Cc2ccccc2)NC(=O)[C@H](COCc2ccccc2)NC1=O` [Compound 6, Ac-Arg-cyclo(Glu-Ser(Bzl)-D-Phe-Arg-Trp-Orn)-OH], the inhibition constant Ki in data set [1] (setting [9]) is 13 nM.

As for `CCCC[C@H](NC(C)=O)C(=O)N[C@H]1CC(=O)NCCCC[C@@H](C(=O)O)NC(=O)[C@H](Cc2c[nH]c3ccccc23)NC(=O)[C@H](CCCN=C(N)N)NC(=O)[C@@H](Cc2ccccc2)NC(=O)[C@H](Cc2cnc[nH]2)NC1=O` [bremelanotide, Ac-Nle-cyclo(Asp-His-D-Phe-Arg-Trp-Lys)-OH, reference compound], the “average spontaneous erections per rat in one hour” value in data set [3] (IV, 1 mg/kg) was 4.875±0.990 spontaneous erections per rat in one hour and 3.167±0.79 spontaneous erections per rat in one hour; in data set [3] (positive control, dose not stated in this study), 3.714±0.680 spontaneous erections per rat in one hour.

B1: cyclic peptide of Compound 7, Ac-Arg-cyclo(Orn-Ser(Bzl)-D-Phe-Arg-Trp-Glu)-OH (peptide)
peptide: Ac-R[Orn][Ser(Bzl)][dF]RWE-OH
modifications: lactam 2-7; also: TFA salt
Take B1: in data set [5], the EC50 (cAMP accumulation, HEK-293 cells expressing hMC4-R) came out at 2 nM and the intrinsic activity (cAMP accumulation, HEK-293 cells expressing hMC4-R) was determined as 47%.

B2: cyclic peptide of Compound 3, Ac-Arg-cyclo(Asp-Pro-D-Phe-Arg-Trp-Lys)-NH2 (peptide)
peptide: RDPXRWK
modifications: N-terminal acetyl (Ac); D-Phe at position 4; side-chain lactam cyclo(Asp2-Lys7); C-terminal amide (-NH2)
notes: Synthetic cyclic heptapeptide; prepared as TFA salt; also called No. 3
Turning to B2, in data set [6], the Ki was determined as 125 nM. In data set [7], the “EC50 (cAMP accumulation, HEK-293 cells expressing hMC4-R)” value amounted to 10 nM.

These data come from patent US20090305960A1, “Melanocortin Receptor-Specific Peptides for Treatment of Obesity / 669” (Palatin Technologies, Inc, priority 2008, published 2009).
